Experimental data as given in ChEMBL document CHEMBL5154808, “Novel β-Hairpin Antimicrobial Peptides Containing the β-Turn Sequence of -RRRF- Having High Cell Selectivity and Low Incidence of Drug Resistance” (J Med Chem, 2022).
The source made the active and inactive calls. The rule behind the calls is not given here.

Assays:
[1] = system: Staphylococcus aureus; experiment: Antimicrobial activity against Staphylococcus aureus ATCC 25923 assessed as reduction of bacterial growth at 2 times MIC incubated for 18 hrs in presence of chymotrypsin by CLSI protocol based broth microdilution method; assay type: functional, organism-based
[2] = system: Staphylococcus aureus; experiment: Antimicrobial activity against Staphylococcus aureus ATCC 25923 assessed as fold change in MIC incubated for 18 hrs in presence of 10% serum by CLSI protocol based broth microdilution method relative to control; assay type: functional
[3] = system: Staphylococcus aureus; experiment: Antibacterial activity against Staphylococcus aureus ATCC 25923 infected BALB/c mouse assessed as reduction in hepatic inflammatory cell infiltration at 5 to 10 mg/kg, ip measured after 24 hrs by hematoxylin and eosin staining based assay; assay type: functional, organism-based; details: dose 5-10 mg/kg
[4] = system: Escherichia coli; experiment: Antimicrobial activity against Escherichia coli ATCC 25922 assessed as reduction in bacterial growth incubated for 18 hrs in presence of 4.5 mM KCl by CLSI protocol based broth microdilution method (reference value: 8 uM); assay type: functional
[5] = system: Staphylococcus aureus; experiment: Bactericidal activity against Staphylococcus aureus ATCC 25923 assessed as time required to kill bacteria at 2 times MIC by time-killing assay; assay type: functional
[6] = Stability in mouse serum assessed as half life at 10 mM measured upto 360 mins by RP-HPLC analysis; assay type: ADME, cell-free
[7] = system: Staphylococcus aureus; experiment: Antimicrobial activity against Staphylococcus aureus ATCC 25923 assessed as reduction in bacterial growth incubated for 18 hrs in presence of 1 mM MgCl2 by CLSI protocol based broth microdilution method (reference value: 8 uM); assay type: functional
[8] = system: Escherichia coli; experiment: Synergistic antibacterial activity against kanamycin-resisitant Escherichia coli ATCC 25922 assessed as fractional inhibitory concentration index incubated for 18 hrs in presence of kanamycin by checker board assay; assay type: functional
[9] = system: Escherichia coli; experiment: Antimicrobial activity against Escherichia coli ATCC 25922 assessed as reduction of bacterial growth at 2 times MIC incubated for 18 hrs in presence of trypsin by CLSI protocol based broth microdilution method; assay type: functional, organism-based
[10] = system: Staphylococcus aureus; experiment: Antibacterial activity against Staphylococcus aureus ATCC 25923 infected BALB/c mouse assessed as reduction in alveolar constriction at 5 to 10 mg/kg, ip measured after 24 hrs by hematoxylin and eosin staining based assay; assay type: functional, organism-based; details: dose 5-10 mg/kg
[11] = system: Escherichia coli; experiment: Synergistic antibacterial activity against Escherichia coli ATCC 25922 assessed as fractional inhibitory concentration index incubated for 18 hrs in presence of polymyxin B by checker board assay; assay type: functional
[12] = system: Escherichia coli; experiment: Antimicrobial activity against Escherichia coli ATCC 25922 assessed as fold change in MIC incubated for 18 hrs in presence of 10% serum by CLSI protocol based broth microdilution method relative to control; assay type: functional
[13] = system: Escherichia coli; experiment: Synergistic antibacterial activity against Escherichia coli ATCC 25922 assessed as fractional inhibitory concentration index incubated for 18 hrs in presence of rifampicin by checker board assay; assay type: functional
[14] = Acute toxicity in Kunming mouse assessed as swelling in liver at 62 mg/kg, ip by H and E staining based analysis; assay type: organism-based; details: in vivo
[15] = system: Cell membrane; experiment: Induction of cytoplasmic membrane depolarization in […] assessed as increase in fluorescence intensity at 1 to 4 times MIC measured after 1 min by DiSC3-5 dye based fluorescence method; assay type: subcellular
[16] = system: Staphylococcus aureus; experiment: Antimicrobial activity against Staphylococcus aureus ATCC 25923 assessed as reduction in bacterial growth incubated for 18 hrs in presence of 4.5 mM KCl by CLSI protocol based broth microdilution method (reference value: 8 uM); assay type: functional
[17] = system: Escherichia coli; experiment: Antimicrobial activity against kanamycin-resistant Escherichia coli ATCC 25922; assay type: functional
[18] = system: Escherichia coli; experiment: Antimicrobial activity against Escherichia coli ATCC 25922 assessed as cell membrane breakage measured after 30 mins by SEM analysis; assay type: functional, organism-based
[19] = system: Escherichia coli; experiment: Synergistic antibacterial activity against Escherichia coli ATCC 25922 assessed as fractional inhibitory concentration index incubated for 18 hrs in presence of kanamycin by checker board assay; assay type: functional
[20] = system: Escherichia coli; experiment: Antimicrobial activity against Escherichia coli ATCC 25922 assessed as reduction in bacterial growth incubated for 18 hrs in presence of 10% serum by CLSI protocol based broth microdilution method (reference value: 8 uM); assay type: functional
[21] = system: Escherichia coli; experiment: Synergistic antibacterial activity against rifampicin-resistant Escherichia coli ATCC 25922 assessed as fractional inhibitory concentration index incubated for 18 hrs in presence of rifampicin by checker board assay; assay type: functional
[22] = system: Staphylococcus aureus; experiment: Antimicrobial activity against Staphylococcus aureus ATCC 25923 assessed as reduction in bacterial growth incubated for 18 hrs in presence of 150 mM NaCl by CLSI protocol based broth microdilution method (reference value: 8 uM); assay type: functional
[23] = Cytotoxicity against human HK-2 cells assessed as reduction in cell viability incubated for 1 hr by resazurin based microplate reader method; assay type: toxicity
[24] = system: Escherichia coli; experiment: Antimicrobial activity against Escherichia coli ATCC 25922 assessed as reduction in bacterial growth incubated for 18 hrs in presence of 150 mM NaCl by CLSI protocol based broth microdilution method (reference value: 4 uM); assay type: functional
[25] = system: Staphylococcus aureus; experiment: Antimicrobial activity against Staphylococcus aureus ATCC 25923 assessed as reduction in bacterial growth incubated for 18 hrs in presence of 4.5 mM KCl by CLSI protocol based broth microdilution method (reference value: 4 uM); assay type: functional
[26] = Acute toxicity in Kunming mouse assessed as congestion in lungs at 77 mg/kg, ip by H and E staining based analysis; assay type: organism-based; details: in vivo
[27] = system: Staphylococcus aureus; experiment: Synergistic antibacterial activity against rifampicin-resistant Staphylococcus aureus ATCC 25923 assessed as fractional inhibitory concentration index incubated for 18 hrs in presence of rifampicin by checker board assay; assay type: functional
[28] = system: Staphylococcus aureus; experiment: Antimicrobial activity against Staphylococcus aureus ATCC 25923 assessed as reduction in bacterial growth incubated for 18 hrs in presence of 10% serum by CLSI protocol based broth microdilution method (reference value: 4 uM); assay type: functional
[29] = system: Staphylococcus aureus; experiment: Antimicrobial activity against Staphylococcus aureus ATCC 25923 assessed as reduction in bacterial growth incubated for 18 hrs in presence of 150 mM NaCl by CLSI protocol based broth microdilution method (reference value: 4 uM); assay type: functional
[30] = system: Staphylococcus aureus; experiment: Antimicrobial activity against Staphylococcus aureus ATCC 25923 assessed as reduction in bacterial growth incubated for 18 hrs in presence of 1 mM MgCl2 by CLSI protocol based broth microdilution method (reference value: 4 uM); assay type: functional
[31] = system: Escherichia coli; experiment: Antimicrobial activity against Escherichia coli ATCC 25922 assessed as reduction in bacterial growth incubated for 18 hrs in presence of 4 uM FeCl3 by CLSI protocol based broth microdilution method (reference value: 4 uM); assay type: functional
[32] = system: Staphylococcus aureus; experiment: Synergistic antibacterial activity against meropenem-resistant Staphylococcus aureus ATCC 25923 assessed as fractional inhibitory concentration index incubated for 18 hrs in presence of meropenem by checker board assay; assay type: functional
[33] = system: Escherichia coli; experiment: Antimicrobial activity against Escherichia coli ATCC 25922 assessed as reduction in bacterial growth incubated for 18 hrs in presence of 4.5 mM KCl by CLSI protocol based broth microdilution method (reference value: 4 uM); assay type: functional
[34] = system: Escherichia coli; experiment: Antimicrobial activity against Escherichia coli ATCC 25922 assessed as reduction in bacterial growth incubated for 18 hrs in presence of 1 mM MgCl2 by CLSI protocol based broth microdilution method (reference value: 4 uM); assay type: functional

| Substance | Activity [1] | fold change (FC) [2] | Activity [3] | Time [5] [min] | half-life at 10000 µM [6] [h] | Activity [10] | fractional inhibitory concentration index (FICI) [11] | fold change (FC) [12] | fractional inhibitory concentration index (FICI) [13] | Activity [15] | MIC [17] [µM] | Activity [18] | CC50 at 1 h [23] [µM] | further results |
| --- | --- | --- | --- | --- | --- | --- | --- | --- | --- | --- | --- | --- | --- | --- |
| H-KWKWKRRRFKWKWK-NH2 | Active | 2 | Active | 90 | 2.68 | Active | 0.375 | 1 | 0.625 | Active | 4 | Active | > 128 | MIC [4]: 8 µM; MIC [7]: 8 µM; fractional inhibitory concentration index (FICI) [8]: 0.3125; Activity [9]: Active; Activity [14]: Toxic; MIC [16]: 8 µM; fractional inhibitory concentration index (FICI) [19]: 0.3125; MIC [20]: 8 µM; fractional inhibitory concentration index (FICI) [21]: 0.5625; MIC [22]: 16 µM |
| H-RIRIRRRRFRIRIR-NH2 | Active | 2 | Active | 30 | 7.7 | Active | 0.5 | 1 | 1 | Active | 4 | Active | 65.2 | MIC [24]: 16 µM; MIC [25]: 4 µM; Activity [26]: Toxic; fractional inhibitory concentration index (FICI) [27]: 0.375; MIC [28]: 8 µM; MIC [29]: 8 µM; MIC [30]: 8 µM; MIC [31]: 8 µM; fractional inhibitory concentration index (FICI) [32]: 0.375; MIC [33]: 8 µM; MIC [34]: 4 µM |
